11 compounds from ChEMBL document CHEMBL3593215, “Design, synthesis and antiproliferative activities of novel benzamides derivatives as HDAC inhibitors” (Eur J Med Chem, 2015) can be followed below.

Series [1] relates to HCT-116. As to the kind of experiment: Cytotoxicity against human HCT116 cells assessed as inhibition of cell proliferation after 72 hrs by MTT assay. It counts as functional, cell-based. As to conditions: HCT-116, 72 h.
Series [2] deals with T1, Histone deacetylase 1 (Homo sapiens, UniProt Q13547). As to the kind of experiment: Inhibition of HDAC1 (unknown origin) preincubated for 5 mins followed by fluorogenic substrate addition measured after 30 mins by microplate reader analysis.
Series [3] deals with MCF7. As to the kind of experiment: Cytotoxicity against human MCF7 cells assessed as inhibition of cell proliferation after 72 hrs by MTT assay. The class given is functional, cell-based. As to conditions: MCF7, 72 h.
For series [4], the system named is A549. As to the kind of experiment: Cytotoxicity against human A549 cells assessed as inhibition of cell proliferation after 72 hrs by MTT assay. It counts as functional, cell-based. The conditions noted are these: A549, 72 h.
Series [5] can be described thus: Oral bioavailability in Sprague-Dawley rat at 25 mg/kg. It counts as ADME, organism-based. The conditions noted are these: in vivo.
The nature of series [6]: Elimination half life in Sprague-Dawley rat at 25 mg/kg, po. The class given is ADME, organism-based. The conditions noted are these: in vivo, read-out: beta t1/2 (converted).
A short description of series [7]: AUClast in Sprague-Dawley rat at 25 mg/kg, po. The class given is ADME, organism-based. Also noted: dose 25 mg/kg, route oral, time 0 - last. The conditions noted are these: in vivo.
The nature of series [8]: AUCinfinity_obs in Sprague-Dawley rat at 25 mg/kg, po. The class given is ADME, organism-based. Also noted: dose 25 mg/kg, time infinity, route oral. The conditions noted are these: in vivo.
Series [9] has as its system A549. Briefly: Potency index, ratio of MS-275 IC50 to compound IC50 for human A549 cells. It counts as functional.
A short description of series [10]: Tmax in Sprague-Dawley rat at 25 mg/kg, po. The class given is ADME, organism-based. The conditions noted are these: in vivo.
The target of series [11] is T1, Histone deacetylase 1. Briefly: Potency index, ratio of MS-275 IC50 to compound IC50 for HDAC1 (unknown origin).
Series [12] in a line: Elimination half life in Sprague-Dawley rat at 5 mg/kg, iv. The class given is ADME, organism-based. As to conditions: in vivo, read-out: beta t1/2 (converted).

T1 sequence (Q13547 whole entry): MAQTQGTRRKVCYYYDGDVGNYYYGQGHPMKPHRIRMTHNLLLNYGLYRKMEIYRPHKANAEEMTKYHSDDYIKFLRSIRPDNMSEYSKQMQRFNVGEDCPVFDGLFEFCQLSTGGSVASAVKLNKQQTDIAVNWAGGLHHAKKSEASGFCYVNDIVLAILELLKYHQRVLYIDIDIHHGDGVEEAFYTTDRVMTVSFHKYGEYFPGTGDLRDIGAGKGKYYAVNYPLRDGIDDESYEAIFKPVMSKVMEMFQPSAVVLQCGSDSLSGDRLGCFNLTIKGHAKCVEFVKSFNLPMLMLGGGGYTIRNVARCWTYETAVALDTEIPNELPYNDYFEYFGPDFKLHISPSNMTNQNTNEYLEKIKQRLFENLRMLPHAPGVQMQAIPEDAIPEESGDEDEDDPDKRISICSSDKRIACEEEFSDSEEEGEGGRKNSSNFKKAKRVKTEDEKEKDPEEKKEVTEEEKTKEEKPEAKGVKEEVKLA

As for `Nc1ccccc1NC(=O)c1ccc(CNC(=O)/C=C/c2cnc3ccccn23)cc1`, the IC50 in series [1] worked out at 2.3 µM; in [2], 0.129 µM; in series [3], 4.13 µM; in [4], 0.832 µM.
On the same counts, the results for `Nc1ccc(F)cc1NC(=O)c1ccc(CNC(=O)/C=C/c2cnc3cccnn23)cc1` are 4.29 µM, 0.137 µM, 11 µM and 0.812 µM.
Regarding `Nc1ccccc1NC(=O)c1ccc(CCNC(=O)/C=C/c2cnc3ccccn23)cc1`, the IC50 is 4.5 µM in [1], 0.217 µM in series [2], 9.44 µM in series [3] and 1.47 µM in series [4].
Regarding `Nc1ccccc1NC(=O)c1ccc(CCNC(=O)/C=C/c2cnc3cccnn23)cc1`, the IC50 in [1] is 2.3 µM; in series [2] it was 0.154 µM; in series [3], 4.67 µM; in [4], 1.15 µM.
For `Nc1ccccc1NC(=O)c1ccc(CCNC(=O)/C=C/c2c[nH]c3ccccc23)cc1`, the IC50 in [1] is 1.57 µM; in series [2], 0.169 µM; in series [3] it was 5.02 µM; in series [4] it was 1.28 µM.
On the same counts, the results for `Nc1cc(F)ccc1NC(=O)c1ccc(CNC(=O)/C=C/c2cnc3cccnn23)cc1` are 2.26 µM, 0.131 µM, 5.51 µM and 0.791 µM.
On to `Cc1nc2ccccn2c1/C=C/C(=O)NCc1ccc(C(=O)Nc2ccccc2N)cc1`, for which the IC50 is 1.43 µM in series [1], 0.173 µM in series [2], 6.22 µM in [3] and 1.3 µM in series [4].
As to `Nc1ccccc1NC(=O)c1ccc(CNC(=O)OCc2cccnc2)cc1` [ENTINOSTAT], the IC50 came out at 5.1 µM in [1], 7.88 µM in series [3] and 3.13 µM in series [4].
Consider `Nc1ccccc1NC(=O)c1ccc(CNC(=O)/C=C/c2cnc3cccnn23)cc1`, for which the IC50 stood at 1.26 µM in [1], 0.118 µM in series [2], 2.87 µM in [3] and 0.723 µM in series [4]. Also, the bioavailability in series [5] turned out to be 76%. In addition, the half-life in series [6] is 8.22 h; in series [12], 1.87 h. Besides, the exposure AUC(0-t) in [7] is 6780 ng·h/mL. In addition, the AUC(0-inf) in series [8] was determined as 8610 ng·h/mL. In addition, the “Ratio IC50” value in series [9] came out at 5; in [11], 2. Further, in series [10], the Tmax amounted to 1.17 h.
Consider `Cc1nc2ccccn2c1/C=C/C(=O)NCCc1ccc(C(=O)Nc2ccccc2N)cc1`, for which the IC50 in series [1] was determined as 1.96 µM; in series [2] it was 0.178 µM; in series [3], 6.8 µM; in series [4] it was 1.46 µM.
Consider `Nc1ccccc1NC(=O)c1ccc(CNC(=O)/C=C/c2c[nH]c3ccccc23)cc1`, for which the IC50 in series [1] worked out at 1.22 µM; in series [2], 0.12 µM; in [3], 2.92 µM; in series [4], 0.649 µM. Besides, the Ratio IC50 in [11] was found to be 2.
